In test [1] the target is Glutathione S-transferase omega-1 (Homo sapiens) (UniProt P78417). Description: Inhibition of human GSTO1-1 expressed in HEK293 cells by CDNB-GSH conjugation assay.
Test [2] concerns the target T1, Glutathione S-transferase omega-1 (Homo sapiens, UniProt P78417).
T1 sequence (P78417 whole entry): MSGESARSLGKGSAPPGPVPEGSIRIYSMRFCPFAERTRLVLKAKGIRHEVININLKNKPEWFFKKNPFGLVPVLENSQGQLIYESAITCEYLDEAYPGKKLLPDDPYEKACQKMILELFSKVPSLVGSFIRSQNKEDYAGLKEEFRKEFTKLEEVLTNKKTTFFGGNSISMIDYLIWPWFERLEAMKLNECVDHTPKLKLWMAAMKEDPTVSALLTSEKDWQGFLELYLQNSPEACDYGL
The test can be described thus: Inhibition of GSTO1-1 (unknown origin) pre-incubated for 1 hr before GSH addition by CDNB-GSH conjugation assay.

Test [3] concerns the target T1, Glutathione S-transferase omega-1. Description: Inhibition of GSTO1-1 (unknown origin) by 4-NPG substrate based assay.
For test [4] the target is unchanged. Description: Inhibition of human GSTO1-1 by MMA (V) reductase assay.
Test [5] has the same target. Description: Inhibition of GSTO1-1 (unknown origin) by enzymatic assay.
Test [6] has as its target Glutathione S-transferase P (Homo sapiens, UniProt P09211). Description: Inhibition of human GSTP1-1.

This is an account of results in ChEMBL document CHEMBL4196096, “Reviewing Hit Discovery Literature for Difficult Targets: Glutathione Transferase Omega-1 as an Example” (J Med Chem, 2018).

Structures are written as SMILES.

Glutathione S-transferase P, sequence (P09211 whole entry): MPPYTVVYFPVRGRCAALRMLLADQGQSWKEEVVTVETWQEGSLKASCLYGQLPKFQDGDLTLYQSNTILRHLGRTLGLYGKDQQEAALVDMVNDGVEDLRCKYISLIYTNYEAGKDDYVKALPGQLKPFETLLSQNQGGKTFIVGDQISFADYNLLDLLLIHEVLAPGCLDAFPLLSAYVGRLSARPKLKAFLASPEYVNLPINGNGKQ

For the molecule `CC(=O)Oc1ccc2c(c1)Oc1cc(OC(C)=O)ccc1C21OC(=O)c2cc(CCl)ccc21`, half-maximal inhibition in test [1] (IC50) was put at 0.0512 µM.

In the case of `CC(C)C[C@H](NC(=O)[C@H](CCc1ccccc1)NC(=O)CN1CCOCC1)C(=O)N[C@@H](Cc1ccccc1)C(=O)N[C@@H](CC(C)C)C(=O)[C@@]1(C)CO1` [CARFILZOMIB], in test [2], inhibition was half-maximal at 0.15 µM (IC50).

`O=C1C=CC(O)(c2cc(=O)c3c(O)cc(O)cc3o2)C=C1` [PROTOAPIGENONE] registered an IC50 in test [3] of 1.6 µM.

Molecule `Cc1c(C)c2c(c(C)c1OC(=O)CCC(=O)O)CC[C@@](C)(CCC[C@H](C)CCC[C@H](C)CCCC(C)C)O2` [(+)-ALPHA-TOCOPHERYL SUCCINATE] yielded a half-maximal inhibitory concentration (IC50) in test [4] of 4 µM.

As for `CC(C)c1cc2c(c(O)c1O)[C@@]1(C(=O)O)CCCC(C)(C)[C@@H]1CC2` [CARNOSIC ACID], the IC50 in test [3] came to 62 µM.

In the case of `C[C@H](CCC(=O)O)[C@H]1CC[C@H]2[C@@H]3CC[C@@H]4C[C@H](O)CC[C@]4(C)[C@H]3C[C@H](O)[C@]12C`, in test [4], it took 1020 µM to reach half-maximal inhibition (IC50).

Regarding `C=C(CC)C(=O)c1ccc(OCC(=O)O)c(Cl)c1Cl` [ETHACRYNIC ACID], the concentration for half-maximal inhibition (IC50) in test [4] came out at 25 µM.

Regarding `CCN(CC)C(=O)SSC(=O)N(CC)CC`, in test [5], the IC50 is below 0.4 µM.

In test [6], `Cc1c(C)c2c(c(C)c1O)CC[C@@](C)(CCC[C@H](C)CCC[C@H](C)CCCC(C)C)O2` [ALPHA-TOCOPHEROL] displayed an IC50 of 0.5 µM.

For `O=[N+]([O-])c1ccc(Cl)c([N+](=O)[O-])c1` [DINITROCHLOROBENZENE], in test [4], half-maximal inhibition (IC50) required 900 µM.

The IC50 is the concentration needed to halve the response being measured.
